Assay results from patent US8173628B2, “Steroidal antiestrogens and antiandrogens and uses thereof” (Northeastern University, priority 2000, dated 2012).

How the values were obtained:
MCF-7 cells = assay: proliferation assay of MCF-7 cells; format: cell-based; details: for effect on the proliferative response to estradiol: ligand added in the presence of 1 nM estradiol; for ability of the ligand to stimulate the proliferation of MCF-7 cells: ligand alone
Text: Trifluoromethyl group was introduced onto phenylvinyl estradiol either at the ortho, meta, or para positions. These compounds were examined for their ability to stimulate or inhibit estrogen responses in two assay systems. […] The meta- and para-isomers gave substantially different profiles. […] Therefore, the position of the trifluoromethyl group exerted a significant effect on the efficacy of the ligand.

immature female rat [1] = assay: immature female rat uterotrophic growth assay, estrogenic assay; format: in vivo
Procedure: (§1) These trifluoromethyl substituted compounds were also studied with an immature female rat uterotrophic growth assay; the results are shown in FIGS. 12, 13, and 14. […] Therefore, the agonist responses observed in the in vitro cell proliferation assay were carried over to the intact animal as well. The antiestrogen assay evaluated the ability of the isomers to block the uterotrophic effect induced by 1 nM estradiol. […] Therefore, in both estrogen responsive cells and tissues these new ligands are producing differential responses in affinity and efficacy related to the site of trifluoromethyl substitution on the phenyl ring.

immature female rat [2] = assay: immature female rat uterotrophic growth assay, antiestrogen assay; format: in vivo; details: 1 nM estradiol
Procedure: as §1

Structure (SMILES)	effect on the proliferative response to estradiol (MCF-7 cells)	ability of the ligand to stimulate the proliferation of MCF-7 cells (MCF-7 cells)	estrogenic effect (uterotrophic growth) (immature female rat [1]; 3 nM level)	estrogenic effect (uterotrophic growth) (immature female rat [1]; 10 and 100 nM)	ability to block the uterotrophic effect induced by estradiol (immature female rat [2]; isomer at 10 and 100 nM)	ability to block the uterotrophic effect induced by estradiol (immature female rat [2]; isomer at 100 nM)
CC12CCC3c4ccc(O)cc4CCC3C1CCC2(O)C=Cc1ccccc1C(F)(F)F (stereo not drawn) [Compound 4a, 17α-20E-21-(2-Trifluoromethylphenyl)-19-norpregna-1,3,5(10),20-tetraene-3,17β-diol]	neither an enhancement nor a diminution of the proliferative response	full agonist response comparable to that of estradiol	effect comparable to estradiol	substantial estrogenic effects	enhancement of the estrogenic response	
CC12CCC3c4ccc(O)cc4CCC3C1CCC2(O)C=Cc1cccc(C(F)(F)F)c1 (stereo not drawn) [Compound 5a, 17α-20E-21-(3-Trifluoromethylphenyl)-19-norpregna-1,3,5(10),20-tetraene-3,17β-diol]	antagonized the effects of estradiol at the same doses	weak proliferative effect at doses greater than 1 nM		little or no estrogenic effects	no significant effect on the estradiol response	
CC12CCC3c4ccc(O)cc4CCC3C1CCC2(O)C=Cc1ccc(C(F)(F)F)cc1 (stereo not drawn) [Compound 6a, 17α-20E-21-(4-Trifluoromethylphenyl)-19-norpregna-1,3,5(10),20-tetraene-3,17β-diol]	decreases in the estradiol effects were observed below 1 nM	did not elicit a proliferative response until a 10 nM dose was employed		little or no estrogenic effects		reduced the estrogenic response
